Source: patent publication US20250268884A1, “Deuterated Domperidone for Treating Gastroparesis” (CinDome Pharma, Inc., priority 2022, published 2025)

Key:
[1] = tested on: adults with idiopathic or diabetic gastroparesis; test: PAGI-SYM questionnaire total and subscale scores, Phase 2a; format: in vivo, human; conditions: for PAGI-SYM bloating subscale score, Baseline / PAGI-SYM bloating subscale score, Change from baseline to Day 14 / PAGI-SYM bloating subscale score, Day 14 / PAGI-SYM bloating subscale score, Percent change from baseline to Day 14 / PAGI-SYM fullness/early satiety subscale score, Baseline / PAGI-SYM fullness/early satiety subscale score, Change from baseline to Day 14 / PAGI-SYM fullness/early satiety subscale score, Day 14 / PAGI-SYM fullness/early satiety subscale score, Percent change from baseline to Day 14 / PAGI-SYM heartburn/regurgitation subscale score, Baseline / PAGI-SYM heartburn/regurgitation subscale score, Change from baseline to Day 14 / PAGI-SYM heartburn/regurgitation subscale score, Day 14 / PAGI-SYM heartburn/regurgitation subscale score, Percent change from baseline to Day 14 / PAGI-SYM lower abdominal pain subscale score, Baseline / PAGI-SYM lower abdominal pain subscale score, Change from baseline to Day 14 / PAGI-SYM lower abdominal pain subscale score, Day 14 / PAGI-SYM lower abdominal pain subscale score, Percent change from baseline to Day 14 / PAGI-SYM nausea/vomiting subscale score, Baseline / PAGI-SYM nausea/vomiting subscale score, Change from baseline to Day 14 / PAGI-SYM nausea/vomiting subscale score, Day 14 / PAGI-SYM nausea/vomiting subscale score, Percent change from baseline to Day 14 / PAGI-SYM total score, Baseline / PAGI-SYM total score, Change from baseline to Day 14 / PAGI-SYM total score, Day 14 / PAGI-SYM total score, Percent change from baseline to Day 14 / PAGI-SYM upper abdominal pain subscale score, Baseline / PAGI-SYM upper abdominal pain subscale score, Change from baseline to Day 14 / PAGI-SYM upper abdominal pain subscale score, Day 14 / PAGI-SYM upper abdominal pain subscale score, Percent change from baseline to Day 14: mean, Safety Population
Description: Subjects were Evaluated as Follows: • Days −28 to −11: Screening procedures were performed. The ANMS GCSI-DD questionnaire was completed daily for at least 14 days prior to randomization (Day 1); • Days −10 to −3: The ANMS GCSI-DD questionnaire was completed daily. A GEBT was performed on a single day within this window, with breath samples obtained twice prior to consumption of a standardized, carbon-13 (^13C)-enriched meal and then at 45, 90, 120, 150, 180, and 240 minutes after meal consumption after an 8-hour fast. […] On Day 14 (±2 days), the PAGI-SYM and Clinical Grading Assessment questionnaires were completed prior to the final dose of study drug. • A GEBT was administered 30 minutes after study drug administration on Day 14 (±2 days). Breath samples were obtained twice prior to ^13C-enriched meal consumption and then at 45, 90, 120, 150, 180, and 240 minutes after meal consumption after an 8-hour fast. If a subject withdrew from the study prior to the Day 14 (±2 days) GEBT, attempts should have been made to perform a GEBT on the last day of study drug administration. Clinical Grading Assessment Scales were also performed.
The PAGI-SYM includes 6 subscales: heartburn/regurgitation, fullness/early satiety, nausea/vomiting, bloating, upper abdominal pain, and lower abdominal pain.

[2] = 10 mg dose, healthy subjects

## [2H]c1c([2H])c([2H])c2c([nH]c(=O)n2CCCN2CCC(n3c(=O)[nH]c4cc(Cl)ccc43)CC2)c1[2H] [Deudomperidone, 1-{3-[4-(5-chloro-2-oxo-2,3-dihydro-1H-1,3-benzodiazol-1-yl)piperidin-1yl]propyl}-2,3-dihydro(4,5,6,7-D4)-1H-1,3-benzodiazol-2-one]
[1]; 5 mg BID
  PAGI-SYM bloating subscale score, Baseline: 3.67
  PAGI-SYM bloating subscale score, Change from baseline to Day 14: −1.00
  PAGI-SYM bloating subscale score, Day 14: 2.67
  PAGI-SYM bloating subscale score, Percent change from baseline to Day 14: −30.16%
  PAGI-SYM fullness/early satiety subscale score, Baseline: 3.89
  PAGI-SYM fullness/early satiety subscale score, Change from baseline to Day 14: −1.53
  PAGI-SYM fullness/early satiety subscale score, Day 14: 2.36
  PAGI-SYM fullness/early satiety subscale score, Percent change from baseline to Day 14: −38.04%
  PAGI-SYM heartburn/regurgitation subscale score, Baseline: 3.63
  PAGI-SYM heartburn/regurgitation subscale score, Change from baseline to Day 14: −1.79
  PAGI-SYM heartburn/regurgitation subscale score, Day 14: 1.84
  PAGI-SYM heartburn/regurgitation subscale score, Percent change from baseline to Day 14: −50.23%
  PAGI-SYM lower abdominal pain subscale score, Baseline: 3.11
  PAGI-SYM lower abdominal pain subscale score, Change from baseline to Day 14: −1.67
  PAGI-SYM lower abdominal pain subscale score, Day 14: 1.44
  PAGI-SYM lower abdominal pain subscale score, Percent change from baseline to Day 14: −52.08%
  PAGI-SYM nausea/vomiting subscale score, Baseline: 2.74
  PAGI-SYM nausea/vomiting subscale score, Change from baseline to Day 14: −1.00
  PAGI-SYM nausea/vomiting subscale score, Day 14: 1.74
  PAGI-SYM nausea/vomiting subscale score, Percent change from baseline to Day 14: −39.58%
  PAGI-SYM total score, Baseline: 3.37
  PAGI-SYM total score, Change from baseline to Day 14: −1.35
  PAGI-SYM total score, Day 14: 2.02
  PAGI-SYM total score, Percent change from baseline to Day 14: −40.13%
  PAGI-SYM upper abdominal pain subscale score, Baseline: 3.17
  PAGI-SYM upper abdominal pain subscale score, Change from baseline to Day 14: −1.11
  PAGI-SYM upper abdominal pain subscale score, Day 14: 2.06
  PAGI-SYM upper abdominal pain subscale score, Percent change from baseline to Day 14: −37.28%
[1]; 10 mg BID
  PAGI-SYM bloating subscale score, Baseline: 3.84
  PAGI-SYM bloating subscale score, Change from baseline to Day 14: −1.17
  PAGI-SYM bloating subscale score, Day 14: 2.65
  PAGI-SYM bloating subscale score, Percent change from baseline to Day 14: −26.78%
  PAGI-SYM fullness/early satiety subscale score, Baseline: 3.60
  PAGI-SYM fullness/early satiety subscale score, Change from baseline to Day 14: −0.88
  PAGI-SYM fullness/early satiety subscale score, Day 14: 2.71
  PAGI-SYM fullness/early satiety subscale score, Percent change from baseline to Day 14: −24.08%
  PAGI-SYM heartburn/regurgitation subscale score, Baseline: 2.67
  PAGI-SYM heartburn/regurgitation subscale score, Change from baseline to Day 14: −1.07
  PAGI-SYM heartburn/regurgitation subscale score, Day 14: 1.62
  PAGI-SYM heartburn/regurgitation subscale score, Percent change from baseline to Day 14: −25.45%
  PAGI-SYM lower abdominal pain subscale score, Baseline: 2.02
  PAGI-SYM lower abdominal pain subscale score, Change from baseline to Day 14: −0.79
  PAGI-SYM lower abdominal pain subscale score, Day 14: 1.25
  PAGI-SYM lower abdominal pain subscale score, Percent change from baseline to Day 14: −38.38%
  PAGI-SYM nausea/vomiting subscale score, Baseline: 2.75
  PAGI-SYM nausea/vomiting subscale score, Change from baseline to Day 14: −0.93
  PAGI-SYM nausea/vomiting subscale score, Day 14: 1.78
  PAGI-SYM nausea/vomiting subscale score, Percent change from baseline to Day 14: −30.39%
  PAGI-SYM total score, Baseline: 2.94
  PAGI-SYM total score, Change from baseline to Day 14: −0.97
  PAGI-SYM total score, Day 14: 1.97
  PAGI-SYM total score, Percent change from baseline to Day 14: −31.18%
  PAGI-SYM upper abdominal pain subscale score, Baseline: 2.74
  PAGI-SYM upper abdominal pain subscale score, Change from baseline to Day 14: −0.97
  PAGI-SYM upper abdominal pain subscale score, Day 14: 1.82
  PAGI-SYM upper abdominal pain subscale score, Percent change from baseline to Day 14: −24.47%
[1]; 20 mg QD
  PAGI-SYM bloating subscale score, Baseline: 3.57
  PAGI-SYM bloating subscale score, Change from baseline to Day 14: −1.10
  PAGI-SYM bloating subscale score, Day 14: 2.47
  PAGI-SYM bloating subscale score, Percent change from baseline to Day 14: −36.38%
  PAGI-SYM fullness/early satiety subscale score, Baseline: 3.42
  PAGI-SYM fullness/early satiety subscale score, Change from baseline to Day 14: −1.10
  PAGI-SYM fullness/early satiety subscale score, Day 14: 2.32
  PAGI-SYM fullness/early satiety subscale score, Percent change from baseline to Day 14: −31.45%
  PAGI-SYM heartburn/regurgitation subscale score, Baseline: 2.68
  PAGI-SYM heartburn/regurgitation subscale score, Change from baseline to Day 14: −1.06
  PAGI-SYM heartburn/regurgitation subscale score, Day 14: 1.62
  PAGI-SYM heartburn/regurgitation subscale score, Percent change from baseline to Day 14: −34.56%
  PAGI-SYM lower abdominal pain subscale score, Baseline: 1.93
  PAGI-SYM lower abdominal pain subscale score, Change from baseline to Day 14: −0.40
  PAGI-SYM lower abdominal pain subscale score, Day 14: 1.53
  PAGI-SYM lower abdominal pain subscale score, Percent change from baseline to Day 14: −10.91%
  PAGI-SYM nausea/vomiting subscale score, Baseline: 2.49
  PAGI-SYM nausea/vomiting subscale score, Change from baseline to Day 14: −1.20
  PAGI-SYM nausea/vomiting subscale score, Day 14: 1.29
  PAGI-SYM nausea/vomiting subscale score, Percent change from baseline to Day 14: −50.18%
  PAGI-SYM total score, Baseline: 2.72
  PAGI-SYM total score, Change from baseline to Day 14: −0.93
  PAGI-SYM total score, Day 14: 1.80
  PAGI-SYM total score, Percent change from baseline to Day 14: −39.03%
  PAGI-SYM upper abdominal pain subscale score, Baseline: 2.27
  PAGI-SYM upper abdominal pain subscale score, Change from baseline to Day 14: −0.70
  PAGI-SYM upper abdominal pain subscale score, Day 14: 1.57
  PAGI-SYM upper abdominal pain subscale score, Percent change from baseline to Day 14: −32.81%
[1]; all deudomperidone treatment groups, placebo also decreased
  PAGI-SYM total and subscale scores at Day 14: decreased from baseline
[2]
  Cmax lower than the same oral dose domperidone: approximately 50%
